Test results reported in patent US20220378773A1, “METHODS FOR TREATING LEUKEMIA AND USE OF A LEUKEMIC STEM CELL SIGNATURE TO PREDICT CLINICAL SENSITIVITY TO THERAPIES” (CELGENE CORPORATION, priority 2019, published 2022).

Legend:
GSPT1 = biological target: T1, GSPT1 (Homo sapiens, UniProt P15170+Q96SW2); assay: In vitro GSPT1 degradation in primary AML cells (flow cytometry, MFI); assay type: cell-based
T1 construct: endogenous in cells; host or cells: primary AML patient cells (peripheral blood mononuclear cells) in short-term suspension culture
T1 sequence (P15170 whole entry): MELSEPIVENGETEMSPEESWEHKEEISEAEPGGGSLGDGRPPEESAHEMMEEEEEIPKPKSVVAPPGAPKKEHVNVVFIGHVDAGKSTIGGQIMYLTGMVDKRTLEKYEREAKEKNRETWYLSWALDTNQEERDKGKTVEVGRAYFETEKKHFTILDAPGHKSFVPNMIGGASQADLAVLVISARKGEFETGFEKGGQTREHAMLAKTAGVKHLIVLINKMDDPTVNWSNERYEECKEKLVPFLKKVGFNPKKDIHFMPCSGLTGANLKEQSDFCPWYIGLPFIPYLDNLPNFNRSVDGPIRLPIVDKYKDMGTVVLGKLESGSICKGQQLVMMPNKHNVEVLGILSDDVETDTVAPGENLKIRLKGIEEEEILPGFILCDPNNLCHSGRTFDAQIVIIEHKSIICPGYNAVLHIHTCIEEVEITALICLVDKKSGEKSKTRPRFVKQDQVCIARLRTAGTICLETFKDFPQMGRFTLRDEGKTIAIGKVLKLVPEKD
T1 sequence (Q96SW2 whole entry): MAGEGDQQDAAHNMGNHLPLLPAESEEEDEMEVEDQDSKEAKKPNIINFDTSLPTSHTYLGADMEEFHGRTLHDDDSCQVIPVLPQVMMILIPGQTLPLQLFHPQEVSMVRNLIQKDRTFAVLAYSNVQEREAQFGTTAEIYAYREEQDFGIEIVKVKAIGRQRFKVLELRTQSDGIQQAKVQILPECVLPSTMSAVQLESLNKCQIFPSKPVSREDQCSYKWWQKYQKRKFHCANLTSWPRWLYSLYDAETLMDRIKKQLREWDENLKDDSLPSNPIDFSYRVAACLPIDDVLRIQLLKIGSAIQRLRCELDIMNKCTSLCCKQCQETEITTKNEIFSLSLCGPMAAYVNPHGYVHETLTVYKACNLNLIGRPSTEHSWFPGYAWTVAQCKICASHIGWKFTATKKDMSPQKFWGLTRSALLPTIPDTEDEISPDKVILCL
T1 sequence (Q16531 whole entry partner): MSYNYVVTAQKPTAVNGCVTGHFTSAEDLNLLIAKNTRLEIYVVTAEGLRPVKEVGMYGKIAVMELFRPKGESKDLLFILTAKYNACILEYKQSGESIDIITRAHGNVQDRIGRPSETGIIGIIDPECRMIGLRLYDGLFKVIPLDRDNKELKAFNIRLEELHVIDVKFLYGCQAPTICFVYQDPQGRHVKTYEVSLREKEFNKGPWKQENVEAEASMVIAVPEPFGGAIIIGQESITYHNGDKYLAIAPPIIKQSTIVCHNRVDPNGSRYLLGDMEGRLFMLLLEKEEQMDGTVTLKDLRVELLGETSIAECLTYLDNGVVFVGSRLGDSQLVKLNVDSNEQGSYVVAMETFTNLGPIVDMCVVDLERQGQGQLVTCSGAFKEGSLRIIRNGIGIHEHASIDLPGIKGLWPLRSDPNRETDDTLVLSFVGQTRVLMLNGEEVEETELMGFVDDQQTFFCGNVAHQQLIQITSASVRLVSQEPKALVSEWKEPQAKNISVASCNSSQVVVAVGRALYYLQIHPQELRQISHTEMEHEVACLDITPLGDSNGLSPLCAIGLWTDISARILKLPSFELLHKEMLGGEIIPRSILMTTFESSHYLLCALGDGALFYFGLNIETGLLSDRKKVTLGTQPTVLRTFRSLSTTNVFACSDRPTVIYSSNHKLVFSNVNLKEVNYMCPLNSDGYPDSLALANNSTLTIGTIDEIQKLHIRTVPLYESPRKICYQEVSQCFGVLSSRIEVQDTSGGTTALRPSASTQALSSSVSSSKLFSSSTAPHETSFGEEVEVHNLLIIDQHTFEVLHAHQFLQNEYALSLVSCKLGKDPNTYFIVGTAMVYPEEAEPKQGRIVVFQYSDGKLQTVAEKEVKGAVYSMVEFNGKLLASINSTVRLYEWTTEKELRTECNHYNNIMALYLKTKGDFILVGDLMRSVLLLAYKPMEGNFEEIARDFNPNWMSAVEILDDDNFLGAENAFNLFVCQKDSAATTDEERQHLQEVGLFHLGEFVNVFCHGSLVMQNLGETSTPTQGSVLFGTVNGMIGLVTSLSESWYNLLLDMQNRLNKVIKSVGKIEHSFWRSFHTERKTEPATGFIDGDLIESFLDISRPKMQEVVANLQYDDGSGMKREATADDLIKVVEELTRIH
Experimental: 6.2.3.1. In Vitro Degradation of G1 to S Phase Transition Protein 1 (GSPT1) by Compound D and Apoptosis Assay
Preparation of Test Article Stock Solutions and Dilutions: Compound D was prepared in anhydrous DMSO to make a 1 M stock solution then further diluted to final concentrations of 3, 30, and 100 nM.
(§1) Cell Culture: Materials used for in vitro assays of AML cells included X-VIVO 10 medium supplemented with 15% BIT, and growth factors including 100 ng/mL of stem cell factor, 20 ng/mL of IL-6, 20 ng/mL of G-CSF, 20 ng/mL of IL-3, 100 ng/mL of Flt 3 ligand (each provided by Amgen, USA), 20 ng/mL of GM-CSF (R&D Systems, USA), and 50 ng/mL of thrombopoietin (Kirin Brewery, Japan).
(§2) Assay Procedure: After 4 and 24 hours of in vitro culture with DMSO or Compound D, cells were harvested for GSPT1 expression and apoptosis. Levels of GSPT1 were analyzed by flow cytometry using median fluorescence intensity (MFI) and normalized against DMSO controls. Apoptosis was also analyzed by flow cytometry and measured as percentage of cells which were positive for cleaved caspase 3/7.
(§3) Viably frozen primary leukemia cells were thawed and plated in suspension culture in the Iscove's Modified Dulbecco's Medium plus 15% BIT Serum Substitute (Stem Cell Technology, Canada), supplemented with multiple human growth factors. Compound D was added to the culture at indicated concentrations.
(§4) For GSPT1 expression, intracellular flow cytometry (FACS) was performed at 24 hours in culture by staining cells with GSPT1 conjugated with Alexa Fluor 647. For apoptosis, cells were harvested at 24 hours in culture and stained with Annexin V-PE and 7-aminoactinomycin D (7AAD) (BD Biosciences, USA).

[1] = test system: primary acute myeloid leukemia blasts; assay: In vitro apoptosis (Annexin V) and cell count of primary AML blasts; assay type: cell-based, human
Experimental: Annexin V-PE apoptosis detection kit (BD Pharmingen, BD Bioscience, USA) was used to assess apoptosis.
as §1, §2, §3, §4

[2] = test system: normal cord blood-derived human graft; parameters: species or system NOD/SCID mice; conditions: mouse, in vivo
Experimental: Normal cord blood experiment was carried out similar to what has been described as above but using CD34+ cells isolated from normal cord blood. Two or three normal donors were pulled together to generate enough cells for each of the CB engraftments, termed CB1 and CB2.
Compound D toxicity on normal hematopoietic cells was investigated using CB samples. Mice were transplanted with two different CB samples (CB1 and CB2) and dosed with 2.5 mg/kg Compound D or vehicle control BID intraperitoneally. Flow cytometric analyses from a representative mouse from the vehicle- and Compound D-treated groups are shown in FIG. 8A and FIG. 8B, respectively.

[3] = test system: AML graft (CD34, CD15, CD14, CD11b); assay: Cell surface marker phenotype of AML graft after treatment; assay type: in vivo, NOD/SCID mice
Source text: After treatment finished, cells were harvested from both injected right femur (RF) and non-injected bone marrow (BM, including left femur, 2 tibias), and stained with human antibodies to assess the engraftment levels of AML. Antibodies used for staining included: Mouse anti-human CD45-APC, CD15-FITC, CD34-APC7, CD38-PC7 (BD Biosciences, USA), CD14-PE, CD33-PC5 (Beckman Coulter, USA), CD19-V450, CD19-AF700, CD11b-APC7, CD34-BV421 (BD Biosciences, USA), and propidium iodide (PI; Invitrogen, USA).
With the observation that Compound D has dramatic effect against AML in mice, the question of whether Compound D targets primitive leukemic cells and induces differentiation was investigated next because AML cells are immature blasts with differentiation and maturation blockage in patients. Samples that were focused on were the samples that still had clear residual leukemia cells in the mice following Compound D treatment. […] The majority of cells harvested from the mice transplanted with patient sample 120093 were CD34+ primitive cells lacking in CD15 expression. […] CD11b is also a myeloid differentiation marker and was increased on patient 150250 grafted cells in parallel with increased expression of another myeloid differentiation marker CD15. […] The changes of CD15, CD14 and CD34 positive populations are summarized in FIGS. 12C-12E and 3 different patterns after Compound D treatment are apparent: increase, decrease, or no change of the populations in AML, graft. The samples with reduction of CD34+ primitive cells and increase of CD15+ and/or CD14+ cells are the samples responding well to Compound D (such as patient samples 110555, 110500, and 120093). […] Secondary transplantation may be performed to determine whether Compound D targeted the LSCs with self-renewal capacity.

[4] = assay type: physicochemical
Source text: Formulation: 5% NMP/45% polyethylene glycol (PEG) 400/50% Saline; NMP—Catalogue no. 69118 (new no. M79603-1L), Fluka; PEG400—Catalogue no. 81172-1L, Fluka; Saline—0.9% sodium chloride.
Preparation: Weigh the desired amount of compound in glass vial. Add NMP and vortex. Make sure that entire compound is wet. Add PEG400 and vortex until clear solution without particulates. Add saline slowly and mix thoroughly for about a minute with hand held homogenizer with disposable tip.

SMILES: O=C1CCC(N2Cc3cc(CNC(=O)C(F)(F)c4ccc(Cl)cc4)ccc3C2=O)C(=O)N1 (stereo not drawn) [Compound D, 2-(4-chlorophenyl)-N-((2-(2,6-dioxopiperidin-3-yl)-1-oxoisoindolin-5-yl)methyl)-2,2-difluoroacetamide]
- GSPT1 degradation, high vs low LSC17 score samples (GSPT1; 100 nM, 24 hours): samples with high LSC17 scores had significantly higher GSPT1 degradation
- effect on reduction of GSPT1 levels, concentration dependence (GSPT1; 3, 30, 100 nM): concentration dependent
- GSPT1 expression in AML cells (GSPT1; Section 6.3 samples, 24 hours exposure): decreased GSPT1 expression
- GSPT1 levels in AML cells (GSPT1; ten primary AML patient samples, 4 and 24 hours, vs control): reduced GSPT1 levels as early as 4 hours post treatment
- apoptosis ([1]; 4 hours): not observed
- apoptosis, high vs low LSC17 score samples ([1]; 24 hours): induced apoptosis at higher levels in samples with high LSC17 scores
- induction of apoptosis, number of samples ([1]; 24 hours, concentration-dependent): observed in 3 of the 10 samples tested
- live cells ([1]; Section 6.3 samples): reduction of live cells
- apoptosis ([1]; Section 6.3 samples, 24 hours): Increased apoptosis
- cell numbers ([1]; with increased concentration, 24 hours): reduced cell numbers for most samples
- human graft remaining after treatment ([2]; NOD/SCID, 4 weeks): 5-10%
- percentage of CD34+ cells ([2]; NOD/SCID, 4 weeks): did not decrease the percentage of CD34+ cells
- CD34+CD19+ primitive lymphoid cells [2]: significantly decreased
- CD34+CD33+ primitive myeloid cells [2]: not targeted
- absolute number of CD34+ cells [2]: significantly reduced
- number of CD19+ lymphocytes [2]: significantly decreased
- percentages of CD34+CD38− primary cells [2]: not specifically targeted
- proportion of CD33+ myeloid cells [2]: increased
- expression of myeloid differentiation marker CD15 ([3]; 3 representative samples): clear increased expression
- CD11b+ leukemia cells ([3]; Patient 130826): decreased CD11b+ leukemia cells
- expression of monocytic cell marker CD14 ([3]; graft of patient 120287): induced expression of monocytic cell marker CD14
- CD11b on grafted cells ([3]; patient 150250): increased
- CD14+ cells ([3]; patient sample 100474): only eliminated CD14+ cells
- CD15 expression ([3]; patient sample 120093): induced CD15 expression
- CD34+ cell population ([3]; patient sample 120093): reduced CD34+ cell population
- CD34+ cells in the graft ([3]; patient samples 100348 and 130826): reduced CD34+ cells
- stability in formulation [4]: not stable in the formulation over time
